“And” between values parts separate entries of the source, which are not always exact repeats. Equal values may be shown once. Inconclusive results and toxic doses are left out.
System: CD2F1 mice, L1210 leukemia ip, survival T/C
Test: NCI In Vivo Anticancer Drug Screen. Data for tumor model L1210 Leukemia (intraperitoneal) in CD2F1 (CDF1) mice
Settings: higher = longer survival
In short: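 Vehicle-treated tumor-bearing mice served as controls (C) for compound-treated mice (T). Reported figure is T divided by C.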

[1] = endpoint: mean survival time, dose: 50.0 mg/kg/injection, schedule: Q04DX003 (ip), vehicle: saline
[2] = endpoint: mean survival time, dose: 100.0 mg/kg/injection, schedule: Q04DX003 (ip), vehicle: saline
[3] = endpoint: mean survival time, dose: 100.0 mg/kg/injection, schedule: Q01DX001 (ip), vehicle: saline
[4] = endpoint: mean survival time, dose: 200.0 mg/kg/injection, schedule: Q01DX001 (ip), vehicle: saline
[5] = endpoint: mean survival time, dose: 25.0 mg/kg/injection, schedule: Q04DX002 (ip), vehicle: saline with Tween-80
[6] = endpoint: mean survival time, dose: 100.0 mg/kg/injection, schedule: Q04DX003 (ip), vehicle: saline with Tween-80
[7] = endpoint: mean survival time, dose: 50.0 mg/kg/injection, schedule: Q01DX009 (ip), vehicle: saline with Tween-80
[8] = endpoint: mean survival time, dose: 200.0 mg/kg/injection, schedule: Q04DX003 (ip), vehicle: saline with Tween-80
[9] = endpoint: mean survival time, dose: 400.0 mg/kg/injection, schedule: Q04DX003 (ip), vehicle: saline with Tween-80
[10] = endpoint: mean survival time, dose: 12.5 mg/kg/injection, schedule: Q01DX009 (ip), vehicle: water
[11] = endpoint: mean survival time, dose: 25.0 mg/kg/injection, schedule: Q01DX009 (ip), vehicle: water
[12] = endpoint: mean survival time, dose: 50.0 mg/kg/injection, schedule: Q01DX009 (ip), vehicle: water
[13] = endpoint: mean survival time, dose: 100.0 mg/kg/injection, schedule: Q01DX009 (ip), vehicle: water

C[n+]1ccc(Cc2ccccc2)cc1
T/C (endpoint: mean survival time, dose: 12.5 mg/kg/injection, schedule: Q04DX002 (ip), vehicle: saline): 104 % of control
T/C (endpoint: mean survival time, dose: 25.0 mg/kg/injection, schedule: Q04DX002 (ip), vehicle: saline): 96 % of control
T/C (endpoint: mean survival time, dose: 50.0 mg/kg/injection, schedule: Q04DX002 (ip), vehicle: saline): 102 % of control

O=C(O)C(O)C(=O)O.[NH2-].[NH2-].[Pt+2]
T/C (endpoint: mean survival time, dose: 25.0 mg/kg/injection, schedule: Q04DX003 (ip), vehicle: saline): 108 % of control
T/C [1]: 114 % of control
T/C [2]: 120 % of control

O=C(CCl)Cc1ccccc1
T/C [1]: 98 % of control
T/C [3]: 104 % of control
T/C [2]: 92 % of control
T/C [4]: 103 % of control
T/C (endpoint: mean survival time, dose: 200.0 mg/kg/injection, schedule: Q04DX003 (ip), vehicle: saline): 101 % of control

CC(C)CC(N)C(=O)NCCCCCCCCCCNC(=O)C(N)CC(C)C (centres undefined)
T/C (endpoint: mean survival time, dose: 6.25 mg/kg/injection, schedule: Q01DX010 (ip), vehicle: saline): 100 % of control
T/C (endpoint: mean survival time, dose: 12.5 mg/kg/injection, schedule: Q01DX010 (ip), vehicle: saline): 113 % of control
T/C (endpoint: mean survival time, dose: 25.0 mg/kg/injection, schedule: Q01DX010 (ip), vehicle: saline): 97 % of control
T/C (endpoint: mean survival time, dose: 50.0 mg/kg/injection, schedule: Q01DX010 (ip), vehicle: saline): 91 % of control

Cc1cc(=O)n(Cc2ccccc2)n1-c1ccccc1
T/C [5]: 97 % of control
T/C (endpoint: mean survival time, dose: 50.0 mg/kg/injection, schedule: Q04DX002 (ip), vehicle: saline with Tween-80): 100 % of control
T/C (endpoint: mean survival time, dose: 100.0 mg/kg/injection, schedule: Q04DX002 (ip), vehicle: saline with Tween-80): 87 % of control
T/C [6]: 98 % of control

CN(C)c1ccc2c(Nc3ccc(NS(C)(=O)=O)cc3)c3ccc(N(C)C)cc3nc2c1
T/C (endpoint: median survival time, dose: 50.0 mg/kg/injection, schedule: Q01DX009 (ip), vehicle: Klucel (hydroxypropylcellulose) (HPC)): 170 % of control
T/C (endpoint: median survival time, dose: 100.0 mg/kg/injection, schedule: Q01DX009 (ip), vehicle: Klucel (hydroxypropylcellulose) (HPC)): 151 % of control and 193 % of control
T/C (endpoint: median survival time, dose: 200.0 mg/kg/injection, schedule: Q01DX009 (ip), vehicle: Klucel (hydroxypropylcellulose) (HPC)): 164 % of control and 174 % of control

F[B-](F)(F)F
T/C (endpoint: mean survival time, dose: 12.5 mg/kg/injection, schedule: Q01DX009 (ip), vehicle: gum acacia): 94 % of control and 106 % of control
T/C (endpoint: mean survival time, dose: 25.0 mg/kg/injection, schedule: Q01DX009 (ip), vehicle: gum acacia): 98 % of control
T/C (endpoint: mean survival time, dose: 50.0 mg/kg/injection, schedule: Q01DX009 (ip), vehicle: gum acacia): 96 % of control and 106 % of control
T/C (endpoint: mean survival time, dose: 100.0 mg/kg/injection, schedule: Q01DX009 (ip), vehicle: gum acacia): 95 % of control and 101 % of control
T/C (endpoint: mean survival time, dose: 200.0 mg/kg/injection, schedule: Q01DX009 (ip), vehicle: gum acacia): 109 % of control
T/C (endpoint: mean survival time, dose: 400.0 mg/kg/injection, schedule: Q01DX009 (ip), vehicle: gum acacia): 98 % of control

NC(=Nc1ccccc1)Nc1ccccc1
T/C (endpoint: mean survival time, dose: 6.25 mg/kg/injection, schedule: Q04DX002 (ip), vehicle: Klucel (hydroxypropylcellulose) (HPC)): 96 % of control
T/C (endpoint: mean survival time, dose: 12.5 mg/kg/injection, schedule: Q04DX002 (ip), vehicle: Klucel (hydroxypropylcellulose) (HPC)): 86 % of control
T/C (endpoint: mean survival time, dose: 25.0 mg/kg/injection, schedule: Q04DX002 (ip), vehicle: Klucel (hydroxypropylcellulose) (HPC)): 92 % of control
T/C [7]: 101 % of control

C[Si](C)(C)Nc1ncnc2c1ncn2[Si](C)(C)C
T/C (endpoint: mean survival time, dose: 100.0 mg/kg/injection, schedule: Q01DX009 (ip), vehicle: saline with Tween-80): 94 % of control
T/C [6]: 103 % of control
T/C (endpoint: mean survival time, dose: 200.0 mg/kg/injection, schedule: Q01DX009 (ip), vehicle: saline with Tween-80): 105 % of control
T/C [8]: 103 % of control
T/C (endpoint: mean survival time, dose: 400.0 mg/kg/injection, schedule: Q01DX009 (ip), vehicle: saline with Tween-80): 106 % of control
T/C [9]: 101 % of control

CCNCc1cc(Nc2cc(C)nc(/N=C(\N)Nc3ccc(Cl)c(Cl)c3)n2)ccc1OC
T/C (endpoint: mean survival time, dose: 25.0 mg/kg/injection, schedule: Q01DX009 (ip), vehicle: Klucel (hydroxypropylcellulose) (HPC)): 100 % of control

CCOC(=O)c1ccc(Oc2ncc([N+](=O)[O-])s2)cc1
T/C (endpoint: mean survival time, dose: 4.95 mg/kg/injection, schedule: Q01DX009 (ip), vehicle: saline with Tween-80): 100 % of control
T/C (endpoint: mean survival time, dose: 7.42 mg/kg/injection, schedule: Q01DX009 (ip), vehicle: saline with Tween-80): 95 % of control

CC(=O)Nc1ccc(OCCOC(=O)Nc2ccc(C)c([N+](=O)[O-])c2)cc1
T/C (endpoint: mean survival time, dose: 12.5 mg/kg/injection, schedule: Q01DX009 (ip), vehicle: saline with Tween-80): 92 % of control
T/C (endpoint: mean survival time, dose: 25.0 mg/kg/injection, schedule: Q01DX009 (ip), vehicle: saline with Tween-80): 88 % of control
T/C [7]: 92 % of control

CC1C(c2ccccc2)OP(=O)(N(CCCl)CCCl)N1C (centres undefined)
T/C (endpoint: mean survival time, dose: 1.56 mg/kg/injection, schedule: Q01DX009 (ip), vehicle: other): 110 % of control
T/C (endpoint: mean survival time, dose: 3.13 mg/kg/injection, schedule: Q01DX009 (ip), vehicle: other): 101 % of control
T/C (endpoint: mean survival time, dose: 6.25 mg/kg/injection, schedule: Q01DX009 (ip), vehicle: other): 98 % of control
T/C (endpoint: mean survival time, dose: 12.5 mg/kg/injection, schedule: Q01DX009 (ip), vehicle: other): 103 % of control and 95 % of control and 97 % of control
T/C [10]: 92 % of control
T/C (endpoint: mean survival time, dose: 25.0 mg/kg/injection, schedule: Q01DX001 (ip), vehicle: other): 97 % of control and 100 % of control
T/C (endpoint: mean survival time, dose: 25.0 mg/kg/injection, schedule: Q01DX009 (ip), vehicle: other): 104 % of control and 95 % of control
T/C [11]: 86 % of control
T/C (endpoint: mean survival time, dose: 31.3 mg/kg/injection, schedule: Q01DX001 (ip), vehicle: other): 104 % of control [middle of 4 runs]
T/C (endpoint: mean survival time, dose: 50.0 mg/kg/injection, schedule: Q01DX001 (ip), vehicle: other): 102 % of control and 92 % of control
T/C (endpoint: mean survival time, dose: 50.0 mg/kg/injection, schedule: Q01DX009 (ip), vehicle: other): 95 % of control and 100 % of control
T/C [12]: 100 % of control
T/C (endpoint: mean survival time, dose: 62.5 mg/kg/injection, schedule: Q01DX001 (ip), vehicle: other): 104 % of control and 103 % of control and 101 % of control
T/C (endpoint: mean survival time, dose: 100.0 mg/kg/injection, schedule: Q01DX001 (ip), vehicle: other): 103 % of control and 97 % of control
T/C (endpoint: mean survival time, dose: 100.0 mg/kg/injection, schedule: Q01DX009 (ip), vehicle: other): 97 % of control and 100 % of control
T/C [13]: 88 % of control
T/C (endpoint: mean survival time, dose: 125.0 mg/kg/injection, schedule: Q01DX001 (ip), vehicle: other): 95 % of control and 101 % of control and 104 % of control
T/C (endpoint: mean survival time, dose: 200.0 mg/kg/injection, schedule: Q01DX001 (ip), vehicle: other): 103 % of control and 108 % of control
T/C (endpoint: mean survival time, dose: 200.0 mg/kg/injection, schedule: Q01DX009 (ip), vehicle: other): 95 % of control and 101 % of control
T/C (endpoint: mean survival time, dose: 250.0 mg/kg/injection, schedule: Q01DX001 (ip), vehicle: other): 103 % of control and 98 % of control and 97 % of control
T/C (endpoint: mean survival time, dose: 500.0 mg/kg/injection, schedule: Q01DX001 (ip), vehicle: other): 107 % of control and 103 % of control and 104 % of control

CC(C)(C)OC(=O)N/N=C/c1ccc2c(c1)CCC2
T/C (endpoint: mean survival time, dose: 100.0 mg/kg/injection, schedule: Q01DX001 (ip), vehicle: Klucel (hydroxypropylcellulose) (HPC)): 101 % of control
T/C (endpoint: mean survival time, dose: 200.0 mg/kg/injection, schedule: Q01DX001 (ip), vehicle: Klucel (hydroxypropylcellulose) (HPC)): 101 % of control
T/C (endpoint: mean survival time, dose: 400.0 mg/kg/injection, schedule: Q01DX001 (ip), vehicle: Klucel (hydroxypropylcellulose) (HPC)): 104 % of control

C1=C\CCCCCCCC/1
T/C [6]: 100 % of control
T/C [9]: 100 % of control

CC(=O)OC1CC(C)CCC1C(C)C (centres undefined)
T/C [6]: 113 % of control
T/C [8]: 106 % of control

CSc1cc(C)c(O)c(C)c1
T/C [6]: 100 % of control
T/C [8]: 104 % of control
T/C [9]: 102 % of control

CC(/C=N/NC(N)=S)Cc1ccc(C(C)C)cc1 (centres undefined)
T/C (endpoint: mean survival time, dose: 3.12 mg/kg/injection, schedule: Q01DX009 (ip), vehicle: acetone): 104 % of control
T/C (endpoint: mean survival time, dose: 6.25 mg/kg/injection, schedule: Q01DX009 (ip), vehicle: acetone): 104 % of control
T/C (endpoint: mean survival time, dose: 12.5 mg/kg/injection, schedule: Q01DX009 (ip), vehicle: acetone): 104 % of control

COc1ccc(CC(=O)Nc2ccc(OC)c(OC)c2)cc1OC
T/C [10]: 96 % of control
T/C [11]: 98 % of control
T/C [12]: 96 % of control
T/C [13]: 95 % of control
T/C (endpoint: mean survival time, dose: 200.0 mg/kg/injection, schedule: Q01DX009 (ip), vehicle: water): 96 % of control

O=C(O)CSC1=NCCN1 (tested in a mixture with another compound)
T/C [3]: 90 % of control
T/C [4]: 93 % of control
T/C (endpoint: mean survival time, dose: 400.0 mg/kg/injection, schedule: Q01DX001 (ip), vehicle: saline): 93 % of control

COc1nn(O)cc(C)c1=N
T/C (endpoint: mean survival time, dose: 6.25 mg/kg/injection, schedule: Q04DX002 (ip), vehicle: saline with Tween-80): 93 % of control
T/C (endpoint: mean survival time, dose: 12.5 mg/kg/injection, schedule: Q04DX002 (ip), vehicle: saline with Tween-80): 101 % of control
T/C [5]: 101 % of control

Source: PubChem BioAssay AID256 (DTP/NCI, 2004)
